Experimental data taken from PMC10004777 (Molecules, 2023).
Like-named read-outs stand apart in the source and are kept apart here.

Tests used:
[1] = tested on: MDM2, p53 protein and Bcl-2/Bax in MCF-7 cells; assay: Western blot protein expression, MCF-7; format: cell-based; conditions: MCF-7, 24 h
Excerpt: (§1) In the introduction section, we introduced that the concept that the MDM2-p53 pathway can induce cell apoptosis by up-regulating the expression of p53 protein to inhibit the proliferation of tumor cells, and by blocking the interaction of MDM2 and p53, the activation of p53 results in transcription of MDM2 mRNA, leading to robust MDM2 protein accumulation. In order to verify the effect of A2 on this pathway, we examined the effect of A2 on the protein level of MDM2, p53 protein and Bcl-2/Bax related to apoptosis, as shown in Figure 5. […] The level of Bcl-2/Bax decreased which was consistent with the apoptosis of MCF-7 cells induced by A2. We also investigated the effect of A2 on the SJSA-1 cell line which overexpresses MDM2.
(§2) For Western blot analysis, MCF-7 and SJSA-1 cells were treated with different concentrations of A2 for 24 h. The total cell protein was extracted, and proteins were isolated using 10% SDS-PAGE gel system. The proteins on the gel were transferred to PVDF membrane, blocked in 5% BSA at room temperature for 2 h, incubated in primary antibody dilution at 4 °C overnight, and washed with TBST for 3 times, 10 min each. Then, they were transferred to dilute release solution of secondary antibody and incubated at room temperature for 2 h. ECL chemiluminescence development solution (Beyotime, BeyoECL star) was added uniformly and detected on gel imaging system (Clinx ChemiScope, China). Antibodies for blotting were MDM2 (abcam, ab16895), P53 (Proteintech, 10442-1-AP), Bcl-2 (CST, 15071S), Bax (CST, 2772T) and β-actin (abcam, ab8226).

[2] = tested on: osteosarcoma cell line SJSA-1; assay: Cell viability (MTT) assay, SJSA-1; format: cell-based; conditions: for Viability of Cells (% of Control): 72 h, MTT
Description: (§3) To investigate the selectivity of these derivatives towards different tumor cell lines, we also selected HepG2 and osteosarcoma cell line SJSA-1 cells to evaluate the anti-proliferation activity of the derivatives. […] Except for compounds A2 and A11, the effects of other compounds on SJSA-1 were not strong.
(§4) The cell lines present in this study were obtained from Procell Life Science & Technology Co. Ltd. MCF-7, HepG2 and SJSA-1 cells were cultured in DMEM medium (DMEM, Gibco) supplemented with 10% fetal bovine serum (FBS, Gibco), 1% penicillin-streptomycin (Hyclone) at 37℃ in a humid environment with 5% CO2. HK-2 cells were cultured in DMEM/F12 (1:1) medium and placed in incubators in the same environment.
(§5) Cell viability was determined by MTT assay. MCF-7, HepG2, SJSA-1 and HK-2 cells (6 × 10^3 cells /well) were seeded in 96-well plates with serum-free medium for 24 h. […] After 48 or 72 h, 10 μL MTT (5 mg/mL, Beyotime) was added and incubated at 37 °C for 4 h. Then 100 μL of lysate was added. After complete dissolution of the crystal, the absorbance was measured at 540 nm and expressed as the average percentage of absorbance between treated and control cells. The value for control cells was set at 100%. Cell survival rate was calculated as the ratio of the absorbance of the cells and negative control after minus the blank absorbance respectively.

[3] = tested on: MDM2 and p53 protein in SJSA-1 cell line; assay: Western blot protein expression, SJSA-1; format: cell-based; conditions: SJSA-1, 24 h, 12.5, 25 and 50 µM
Excerpt: as §1
as §2, with “Then, they were transferred to dilute release solution of secondary antibody and incubated at room temperature for 2 h.” left out, “Antibodies for blotting were MDM2 (abcam, ab16895), P53 (Proteintech, 10442-1-AP), Bcl-2 (CST, 15071S), Bax (CST, 2772T) and β-actin (abcam, ab8226).” left out

HepG2 cells = assay: Cell viability (MTT) assay, HepG2; format: cell-based; conditions: for Viability of Cells (% of Control): 48 h, MTT
Description: as §3, §4, §5

MDM2 protein [4] = biological target: T1, MDM2 protein (Homo sapiens, UniProt Q00987); assay: Surface plasmon resonance (SPR) binding assay
T1 construct: purchased Protintech (so in the source)
Description: In order to speculate whether A2 effects the p53-MDM2 pathway by binding with MDM2 to inhibit the interaction between MDM2 and p53, we carried out in silico and in vitro binding experiments. […] We used the S-value to evaluate the binding degree of the compound and MDM2 in the molecular docking experiments. The higher the absolute value of this number, the stronger the binding force.
MDM2 protein (5 mg/mL, Protintech) was immobilized on a PCH sensor chip (Octet) and preactivated with EDC/NHS mixture for 420 s at a flow rate of 10 μL/min. A2 was diluted to 100, 50, 25, 12.5, 6.25, 3.13, 0 μM with PBST buffer containing 1% DMSO. The binding time was 600 s, and the flow rate was 20 μL/min. The dissociation time was 180 s, and the affinity constant KD value was obtained by computer fitting and steady-state analysis.

HK-2 cells = assay: Cell viability (MTT) assay, HK-2 normal cells (cytotoxicity); format: cell-based; conditions: HK-2 normal cells, 48 h, MTT
Description: as §4, §5

[5] = tested on: MCF-7 breast cancer cells; assay: Cell viability (MTT) assay, MCF-7; format: cell-based; conditions: for Viability of Cells (% of Control): 48 h, MTT
Description: MCF-7 is a commonly used tumor cell line.
as §4, §5

SJSA-1 cells = assay: Flow cytometry apoptosis, Annexin V-FITC/PI staining; format: cell-based; conditions: 24 h
Description: Cells were stained with Annexin V-FITC and propidium iodide.
To determine the apoptosis rate, an Annexin V-FITC/PI double staining apoptosis assay kit (Beyotime) was used to detect apoptotic cells by flow cytometry (BD FACSALOBUR), according to the manufacturer’s instructions. Briefly, SJSA-1 cells were treated with 0.1% DMSO, 12.5, 25, and 50 μM of A2 for 24 h. After harvesting, the cells were incubated with 5 μL Annexin V-FITC for 15 min and 10 μL PI for 5 min at 4 °C under dark conditions. Flow cytometry was then performed to analyze the apoptosis rate. Data were analyzed by using BD FACSDiva 8.0.1.

MDM2 protein [6] = biological target: T1, MDM2 protein; set-up: method as in PMID 22380771
[7] = tested on: 95-D cells versus H1299 cells; set-up: method as in doi:10.13386/j.issn1002-0306.2015.11.030; conditions: cited from earlier work

T1 sequence (Q00987 whole entry): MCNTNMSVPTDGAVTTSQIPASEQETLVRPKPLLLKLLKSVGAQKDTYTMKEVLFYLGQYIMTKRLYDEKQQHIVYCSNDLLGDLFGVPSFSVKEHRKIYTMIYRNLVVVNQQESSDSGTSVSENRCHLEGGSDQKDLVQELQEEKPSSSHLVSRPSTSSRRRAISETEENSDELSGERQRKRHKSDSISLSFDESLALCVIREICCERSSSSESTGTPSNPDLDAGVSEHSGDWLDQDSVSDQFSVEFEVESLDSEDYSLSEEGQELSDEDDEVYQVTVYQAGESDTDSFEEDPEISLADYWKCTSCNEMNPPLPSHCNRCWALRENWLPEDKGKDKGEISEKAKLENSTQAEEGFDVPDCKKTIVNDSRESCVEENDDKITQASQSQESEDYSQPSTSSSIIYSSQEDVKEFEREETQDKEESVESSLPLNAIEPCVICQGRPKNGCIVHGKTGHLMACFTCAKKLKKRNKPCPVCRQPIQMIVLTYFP

| SMILES | Viability of Cells (% of Control) ([2]; SJSA-1, 50 µM) | Viability of Cells (% of Control) ([2]; SJSA-1, 100 µM) | Viability of Cells (% of Control) (HepG2 cells; HepG2, 25 µM) | Viability of Cells (% of Control) (HepG2 cells; HepG2, 50 µM) | Viability of Cells (% of Control) (HK-2 cells; 50 µM) | Viability of Cells (% of Control) (HK-2 cells; 100 µM) | Viability of Cells (% of Control) ([5]; MCF-7, 25 µM) | Viability of Cells (% of Control) ([5]; MCF-7, 50 µM) | Viability of Cells (% of Control) ([5]; MCF-7, 100 µM) | also measured |
| --- | --- | --- | --- | --- | --- | --- | --- | --- | --- | --- |
| CCCCCCNC(=O)[C@H](C)CC(=O)C[C@@H](C)[C@H]1C[C@H](O)[C@@]2(C)C3=C(C(=O)C[C@]12C)[C@@]1(C)CCC(=O)C(C)(C)[C@@H]1C[C@@H]3O [Compound A2, (n-hexyl)-(7β,15α,25R)-7,15-Dihydroxy-3,11,23-Trioxolanost-8-en-26-oic Amide] | 51.4 ± 1.7 % of Control | 28.5 ± 3.4 % of Control | 78.8 ± 1.7 % of Control | 48.4 ± 2.1 % of Control | 97.1 ± 4.1 % of Control | 90.9 ± 3.0 % of Control | 66.76 ± 6.2 % of Control | 59.4 ± 4.7 % of Control | 50.37 ± 1.7 % of Control | level of Bcl-2/Bax [1]: decreased; MDM2 protein level ([1]; 50 µM): increasing trend; p53 protein level ([1]; 50 µM): increasing trend; anti-proliferation activity on SJSA-1 (in words) ([2]; SJSA-1, 72 h): potent inhibition; expression of MDM2 [3]: increased in a dose-dependent manner; expression of p53 protein [3]: increased in a dose-dependent manner; melting point: 129.9 to 131.3 °C; anti-proliferation activity on HepG2 (in words) (HepG2 cells; HepG2, 48 h): potent anti-proliferation activity; Kd (MDM2 protein [4]; immobilized MDM2, steady-state analysis): 1680 nM; Kd (MDM2 protein [4]; printed in Figure 7): 1648 ± 7 nM; anti-proliferation activity on MCF-7 compared with GAA ([5]; MCF-7, 48 h): significant anti-proliferation activities; proportion of early phase apoptosis cells (Q3) (SJSA-1 cells; SJSA-1, 12.5 µM): 11.6%; proportion of early phase apoptosis cells (Q3) (SJSA-1 cells; SJSA-1, 25 µM): 12.3%; proportion of early phase apoptosis cells (Q3) (SJSA-1 cells; SJSA-1, 50 µM): 18.7% |
| C[C@H](CC(=O)C[C@@H](C)[C@H]1C[C@H](O)[C@@]2(C)C3=C(C(=O)C[C@]12C)[C@@]1(C)CCC(=O)C(C)(C)[C@@H]1C[C@@H]3O)C(=O)O [GAA, Ganoderic acid A, reference compound] | 73.5 ± 1.1 % of Control | 74.0 ± 4.0 % of Control | 83.0 ± 1.5 % of Control | 84.0 ± 0.1 % of Control | 117.8 ± 6.3 % of Control | 104.9 ± 7.6 % of Control | 109.9 ± 2.1 % of Control | 86.2 ± 5.2 % of Control | 83.6 ± 9.4 % of Control | Ki (MDM2 protein [6]; read-out: Ki (predicted affinity with MDM2 protein); virtual screening prediction; cited from earlier work): 147 nM |
| CC(=O)O[C@@H]1C(=O)C2=C(C(=O)C[C@H]3C(C)(C)C(=O)CC[C@]23C)[C@]2(C)C(=O)C[C@H]([C@H](C)CC(=O)CC(C)C(=O)O)[C@@]12C (some centres unmarked) [ganoderic acid F] | – | – | – | – | – | – | – | – | – | Ki (MDM2 protein [6]; virtual screening prediction; read-out: Ki (predicted affinity with MDM2 protein); cited from earlier work): 212 nM |
| CC(=O)O[C@@H](C/C=C(\C)C(=O)O)[C@@H](C)[C@H]1C[C@H](OC(C)=O)[C@@]2(C)C3=CC[C@H]4C(C)(C)[C@H](OC(C)=O)CC[C@]4(C)C3=CC[C@]12C [ganoderic acid T] | – | – | – | – | – | – | – | – | – | sensitivity of 95-D cells (wild-type p53) relative to H1299 cells (no p53) [7]: 3.3 times |
